Here are results for ten compounds from ChEMBL document CHEMBL3397033, “Bioactive benzofuran derivatives: moracins A-Z in medicinal chemistry” (Eur J Med Chem, 2015).

pIC50: −log10 of the molar value. In brackets after ≈: the same amount, converted by molar mass.

The test system of data set [1] is Pseudomonas aeruginosa. Briefly: Antimicrobial activity against Pseudomonas aeruginosa. It is filed as functional.
For data set [2], the system named is Klebsiella pneumoniae. Kind of data set: Antimicrobial activity against Klebsiella pneumoniae. It is filed as functional.
In data set [3] the test system is Escherichia coli. Briefly: Antimicrobial activity against Escherichia coli. It is filed as functional.
The subject of data set [4] is A2780. Kind of data set: Cytotoxicity against human A2780 cells after 96 hrs by MTT assay. It is filed as functional, cell-based. The conditions noted are these: A2780, 96 h. (In general: Tetrazolium assays rely on reduction of a dye to a coloured formazan, in cell work by metabolically active cells.)
Data set [5] in a line: Cytotoxicity against human HCT8 cells after 96 hrs by MTT assay. It is filed as functional, cell-based. The conditions noted are these: HCT-8, 96 h.
Data set [6] can be described thus: Cytotoxicity against human Bel7402 cells after 96 hrs by MTT assay. It is filed as functional, cell-based. The conditions noted are these: Bel-7402, 96 h.
In data set [7] the test system is A549. Kind of data set: Cytotoxicity against human A549 cells after 96 hrs by MTT assay. Conditions: A549, 96 h. It is filed as functional, cell-based.
A short description of data set [8]: Cytotoxicity against human BGC823 cells after 96 hrs by MTT assay. It is filed as functional, cell-based. The conditions noted are these: BGC-823, 96 h.
Data set [9] can be described thus: Antifungal activity against Stigmina mori. It is filed as functional.
The nature of data set [10]: Antifungal activity against Cochliobolus miyabeanus. It is filed as functional. Conditions: Bipolaris oryzae.
A short description of data set [11]: Antifungal activity against Fusarium roseum. It is filed as functional.
The nature of data set [12]: Antifungal activity against Diaporthe nomurai. It is filed as functional.
Data set [13] has as its system Rosellinia necatrix. Briefly: Antifungal activity against Rosellinia necatrix. It is filed as functional.
The nature of data set [14]: Antifungal activity against Fusarium solani f. sp. mori. It is filed as functional.
Data set [15] in a line: Antifungal activity against Fusarium lateritium f. sp. mori. It is filed as functional.
A short description of data set [16]: Antioxidant activity assessed as DPPH radical scavenging activity measured as discoloration at 50 ug/ml. It is filed as physicochemical. On the technique in general: DPPH is a stable violet radical that fades when it is reduced.
Data set [17] can be described thus: Antioxidant activity assessed as DPPH radical scavenging activity measured as discoloration at 25 ug/ml. It is filed as physicochemical.
The test system of data set [18] is Microsporum audouinii. Kind of data set: Microbicidal activity against Microsporum audouinii by liquid microdilution assay. It is filed as functional. (In general: In broth dilution the organism is exposed to a series of concentrations in liquid medium.)
Data set [19] concerns Bacillus cereus. Briefly: Microbicidal activity against Bacillus cereus by liquid microdilution assay. It is filed as functional.
In data set [20] the test system is Klebsiella pneumoniae. Briefly: Antimicrobial activity against Klebsiella pneumoniae by liquid microdilution assay. It is filed as functional.
In data set [21] the test system is Pseudomonas aeruginosa. Briefly: Antimicrobial activity against Pseudomonas aeruginosa by liquid microdilution assay. It is filed as functional.
Data set [22] has as its system Shigella dysenteriae. Briefly: Antimicrobial activity against Shigella dysenteriae by liquid microdilution assay. It is filed as functional.
Data set [23] deals with Salmonella typhi. Kind of data set: Microbicidal activity against Salmonella typhi by liquid microdilution assay. Conditions: Salmonella enterica. It is filed as functional, Salmonella enterica subsp. enterica serovar Typhi.
Data set [24] has as its system Bacillus cereus. Briefly: Antimicrobial activity against Bacillus cereus by liquid microdilution assay. It is filed as functional.
The test system of data set [25] is Klebsiella pneumoniae. Kind of data set: Microbicidal activity against Klebsiella pneumoniae by liquid microdilution assay. It is filed as functional.
For data set [26], the system named is Citrobacter freundii. Kind of data set: Microbicidal activity against Citrobacter freundii by liquid microdilution assay. It is filed as functional.
The subject of data set [27] is Microsporum audouinii. Briefly: Antimicrobial activity against Microsporum audouinii by liquid microdilution assay. It is filed as functional.
A short description of data set [28]: Antioxidant activity assessed as DPPH radical scavenging activity measured as discoloration at 12.5 ug/ml. It is filed as physicochemical.
Data set [29] deals with Enterococcus faecalis. Briefly: Microbicidal activity against Streptococcus faecalis by liquid microdilution assay. It is filed as functional.
For data set [30], the system named is Enterococcus faecalis. Kind of data set: Antimicrobial activity against Streptococcus faecalis by liquid microdilution assay. It is filed as functional.
Data set [31] concerns Escherichia coli. Briefly: Microbicidal activity against Escherichia coli by liquid microdilution assay. It is filed as functional.
In data set [32] the test system is Staphylococcus aureus. Briefly: Microbicidal activity against Staphylococcus aureus by liquid microdilution assay. It is filed as functional.
A short description of data set [33]: Antioxidant activity assessed as DPPH radical scavenging activity measured as discoloration at 100 ug/ml. It is filed as physicochemical.
The subject of data set [34] is Citrobacter freundii. Kind of data set: Antimicrobial activity against Citrobacter freundii by liquid microdilution assay. It is filed as functional.
In data set [35] the test system is Staphylococcus aureus. Kind of data set: Antimicrobial activity against Staphylococcus aureus by liquid microdilution assay. It is filed as functional.
The nature of data set [36]: Antioxidant activity assessed as DPPH radical scavenging activity. It is filed as physicochemical.
For data set [37], the system named is Candida albicans. Kind of data set: Antimicrobial activity against Candida albicans by liquid microdilution assay. It is filed as functional.
Data set [38] has as its system Shigella dysenteriae. Kind of data set: Microbicidal activity against Shigella dysenteriae by liquid microdilution assay. It is filed as functional.
Data set [39] concerns Salmonella typhi. Kind of data set: Antimicrobial activity against Salmonella typhi by liquid microdilution assay. It is filed as functional, Salmonella enterica subsp. enterica serovar Typhi. The conditions noted are these: Salmonella enterica.
Data set [40] has as its system Candida albicans. Briefly: Microbicidal activity against Candida albicans by liquid microdilution assay. It is filed as functional.
Data set [41] has as its system Escherichia coli. Kind of data set: Antimicrobial activity against Escherichia coli by liquid microdilution assay. It is filed as functional.
The subject of data set [42] is RAW264.7. Briefly: Antiinflammatory activity against mouse RAW264.7 cells assessed as reduction of LPS-induced NO production. It is filed as functional, cell-based.
In data set [43] the test system is Pseudomonas aeruginosa. Briefly: Microbicidal activity against Pseudomonas aeruginosa by liquid microdilution assay. It is filed as functional.
Data set [44] concerns RAW264.7. Briefly: Antiinflammatory activity against mouse RAW264.7 cells assessed as reduction of IFNgamma-induced NO production. It is filed as functional, cell-based.

As to `COc1cc(O)cc(-c2cc3ccc(O)cc3o2)c1CC=C(C)C` [MORACIN I], the minimum inhibitory concentration (MIC) in data set [1], in data set [2] and in data set [3] was more than 100 µg/mL throughout.

As for `CC1(C)Oc2cc3oc(-c4cc(O)cc(O)c4)cc3cc2C(O)C1O` (stereo not given), the MIC in data set [1], in [2] and in [3] was more than 100 µg/mL in each case.

Consider `Oc1cc(O)cc(-c2cc3cc4ccoc4cc3o2)c1`, for which the IC50 was determined as 5.9 µg/mL (≈ 22.2 µM) in data set [4]; 6.4 µg/mL (≈ 24 µM) in data set [5]; 5.9 µg/mL (≈ 22.2 µM) in data set [6]; 7.3 µg/mL (≈ 27.4 µM) in data set [7]; 3.8 µg/mL (≈ 14.3 µM) in data set [8]. The MIC in [1], in data set [2] and in [3] was more than 100 µg/mL throughout.

As to `COc1cc(O)cc(-c2cc3cc(O)c(OC)cc3o2)c1`, the MIC in [1], in data set [2] and in data set [3] was more than 100 µg/mL in each case.

In the case of `CC1=CCc2c(c(O)cc3cc(-c4cc(O)cc(O)c4)oc23)OC1`, the MIC in [1], in [2] and in [3] was more than 100 µg/mL each time.

For `CC1=CCc2c(ccc3cc(-c4cc(O)cc(O)c4)oc23)OC1`, the MIC in [9] is 50 µg/mL (≈ 162 µM); in [10], 50 µg/mL (≈ 162 µM); in [1], more than 100 µg/mL; in data set [11], 15 µg/mL (≈ 48.6 µM); in data set [2] it was more than 100 µg/mL; in [3] it was more than 100 µg/mL. Also, the MIC in [12] was found to be 50 µg/mL (≈ 162 µM); in data set [13], 15 µg/mL (≈ 48.6 µM); in data set [14], 500 µg/mL (≈ 1620 µM); in [15], 500 µg/mL (≈ 1620 µM).

With `CC1(O)C=Cc2c(c(O)cc3cc(-c4cc(O)cc(O)c4)oc23)OC1` (stereo not given), the Activity in [16] was found to be 49.98%; in data set [17], 42.09%; in data set [28], 38.5%; in data set [33], 53.6%. Further, the MIC in [1] was more than 100 µg/mL; in data set [2] it was more than 100 µg/mL; in data set [20], 156 µg/mL (≈ 458 µM); in data set [21], 625 µg/mL (≈ 1840 µM); in data set [22] it was 78 µg/mL (≈ 229 µM); in data set [24], 10 µg/mL (≈ 29.4 µM). For the same compound, the MIC was 78 µg/mL (≈ 229 µM) in [27]; more than 100 µg/mL in data set [3]; 20 µg/mL (≈ 58.8 µM) in [30]; 312 µg/mL (≈ 917 µM) in data set [34]; 156 µg/mL (≈ 458 µM) in data set [35]; 312 µg/mL (≈ 917 µM) in data set [37]. Moreover, the minimum inhibitory concentration (MIC) came out at 39 µg/mL (≈ 115 µM) in data set [39] and 10 µg/mL (≈ 29.4 µM) in [41]. Also, the MFC was found to be 312 µg/mL (≈ 917 µM) in data set [18] and 625 µg/mL (≈ 1840 µM) in data set [40]. The MBC in [19] came to 39 µg/mL (≈ 115 µM); in [23], 78 µg/mL (≈ 229 µM); in data set [25], 312 µg/mL (≈ 917 µM); in data set [26], 625 µg/mL (≈ 1840 µM); in [29], 78 µg/mL (≈ 229 µM); in [31], 39 µg/mL (≈ 115 µM). Also, the MBC was 312 µg/mL (≈ 917 µM) in [32] and 156 µg/mL (≈ 458 µM) in data set [38]. Also, the EC50 in [36] was found to be 6.08 µg/mL (≈ 17.9 µM).

As to `COc1cc2c(c3oc(-c4cc(O)cc(O)c4)cc13)CC=C(C)CO2`, the MIC in data set [9] was 50 µg/mL (≈ 148 µM); in data set [10] it was 50 µg/mL (≈ 148 µM); in [1], more than 100 µg/mL; in [11] it was 15 µg/mL (≈ 44.3 µM); in data set [2], more than 100 µg/mL; in data set [3], more than 100 µg/mL. The MIC worked out at 50 µg/mL (≈ 148 µM) in [12], 15 µg/mL (≈ 44.3 µM) in [13], 1000 µg/mL (≈ 2960 µM) in data set [14] and 100 µg/mL (≈ 296 µM) in data set [15].

Consider `COc1cc2oc(-c3cc(O)cc(O)c3)cc2cc1CCC(C)(C)O`, for which the MIC in [1], in [2] and in [3] was more than 100 µg/mL throughout.

Take `CC(C)(O)C(O)Cc1cc2cc(-c3cc(O)cc(O)c3)oc2cc1O` (stereo not given): the Activity is 48% in data set [16], 38.2% in data set [17], 34.6% in data set [28] and 50% in data set [33]. In addition, the pIC50 in data set [42] and in [44] was 4.84 each time. In addition, the MIC in [1] was more than 100 µg/mL; in data set [2], more than 100 µg/mL; in data set [20] it was 312 µg/mL (≈ 906 µM); in data set [21], 10 µg/mL (≈ 29 µM); in [22], 78 µg/mL (≈ 227 µM); in data set [24] it was 156 µg/mL (≈ 453 µM). For the same compound, the MIC in data set [27] was 312 µg/mL (≈ 906 µM); in data set [3], more than 100 µg/mL; in data set [30] it was 156 µg/mL (≈ 453 µM); in data set [35] it was 312 µg/mL (≈ 906 µM); in data set [39] it was 156 µg/mL (≈ 453 µM); in data set [41], 78 µg/mL (≈ 227 µM). The compound further yielded an MFC in data set [18] of 625 µg/mL (≈ 1810 µM). The MBC came to 625 µg/mL (≈ 1810 µM) in data set [19]; 312 µg/mL (≈ 906 µM) in data set [23]; 625 µg/mL (≈ 1810 µM) in data set [25]; 39 µg/mL (≈ 113 µM) in data set [43]; 312 µg/mL (≈ 906 µM) in [29]; 625 µg/mL (≈ 1810 µM) in [31]. Besides, the MBC in data set [32] was 625 µg/mL (≈ 1810 µM); in data set [38], 312 µg/mL (≈ 906 µM). In addition, the EC50 in data set [36] amounted to 7.17 µg/mL (≈ 20.8 µM).

A word on the MIC: it is the smallest concentration in the dilution series that meets the test's criterion for growth inhibition. The low end stands for greater potency, the high end for weaker potency. As a reminder, the IC50 is the midpoint of a concentration-inhibition curve. Low readings indicate greater potency, high ones weaker potency. As usually defined, the MBC is the lowest tested concentration that kills the bacteria rather than only halting them. Read a low MBC as greater bactericidal potency. What is called EC50 is the concentration at which the effect is half-maximal. By pIC50 is commonly meant the negative decadic logarithm of the IC50, by convention in mol/L.
